Calls of active or inactive are those of the source. No cut-off for these calls is given here.
Assays:
[1] = test system: Liver; experiment: Unbound intrinsic clearance in mouse liver microsomes; type: ADME, microsome
[2] = test system: Liver; experiment: Unbound intrinsic clearance in rat liver microsomes; type: ADME, microsome
[3] = Fraction unbound in mouse plasma at 1 uM after 4 hrs by LC-MS/MS analysis; type: ADME, cell-free
[4] = Oral bioavailability in mouse at 10 mg/kg; type: ADME, organism-based; settings: in vivo
[5] = test system: Mus musculus; experiment: Unbound plasma clearance in mouse at 3 mg/kg, iv or 10 mg/kg, po; type: ADME, organism-based; settings: in vivo
[6] = Lipophilicity, log D of the compound; type: physicochemical; settings: octanol/water
[7] = test system: Liver; experiment: Unbound intrinsic clearance in human liver microsomes; type: ADME, microsome
[8] = test system: Mus musculus; experiment: Fraction absorbed in portal vein of mouse at 3 mg/kg, iv or 10 mg/kg, po; type: ADME, organism-based; settings: in vivo
[9] = test system: Mus musculus; experiment: Fraction absorbed in portal vein of mouse at 1 mg/kg, iv or 1 mg/kg, po; type: ADME, organism-based; settings: in vivo
[10] = Fraction unbound in rat plasma; type: ADME, cell-free
[11] = Oral bioavailability in mouse at 1 mg/kg; type: ADME, organism-based; settings: in vivo
[12] = Permeability of the compound by PAMPA; type: physicochemical; settings: read-out: permeability
[13] = test system: Mus musculus; experiment: Unbound clearance in mouse at 1 mg/kg, iv or 1 mg/kg, po; type: ADME, organism-based; settings: in vivo
[14] = test system: Rattus norvegicus; experiment: Fraction absorbed in portal vein of rat at 1 mg/kg, iv or 1 mg/kg, po; type: ADME, organism-based; settings: in vivo
[15] = Oral bioavailability in rat at 1 mg/kg; type: ADME, organism-based; settings: in vivo
[16] = test system: Rattus norvegicus; experiment: Unbound clearance in rat at 1 mg/kg, iv or 1 mg/kg, po; type: ADME, organism-based; settings: in vivo
[17] = test system: MX1; experiment: Antiproliferative activity against human MX1 cells after 72 hrs by Cell Titer Glo assay; type: functional, cell-based; settings: MX1, 72 h
[18] = molecular target: T1, Bromodomain-containing protein 4 (Homo sapiens, UniProt O60885); experiment: Inhibition of human N-terminal His6-tagged BRD4 BD1-BD2 (57 to 550 residues) expressed in EScherichia coli BL21(DE3) after 1 hr by Alexa-647-conjugated probe based TR-FRET assay
[19] = molecular target: T1, Bromodomain-containing protein 4; experiment: Inhibition of BRD4 in human NCI-H1299 cells after 24 hrs by Bright-Glo luciferase reporter gene assay; type: cell-based
[20] = test system: Rattus norvegicus; experiment: Unbound AUC in rat at 1 mg/kg, po; type: ADME, organism-based; settings: in vivo
[21] = test system: Mus musculus; experiment: Unbound AUC in mouse at 1 mg/kg, po; type: ADME, organism-based; settings: in vivo
[22] = test system: Mus musculus; experiment: Toxicity in SCID-Beige mouse xenografted with human OPM2 cells assessed as weight loss at 1 mg/kg, po qd for 21 days (reference value: 2%); type: organism-based; settings: in vivo, 504 h
[23] = test system: Mus musculus; experiment: Toxicity in SCID-Beige mouse xenografted with human OPM2 cells assessed as weight loss at 3 mg/kg, po qd for 21 days (reference value: 2%); type: organism-based; settings: in vivo, 504 h
[24] = test system: Plasma; experiment: Free plasma concentration required to reach in vitro EC50 for human OPM2 cells in SCID-Beige mouse xenografted with human OPM2 cells at 1 to 3 mg/kg, po
[25] = test system: OPM-2; experiment: Antiproliferative activity against human OPM2 cells; type: functional, cell-based
[26] = test system: OPM-2; experiment: Antitumor activity against human OPM2 cells xenografted in SCID-Beige mouse assessed as tumor growth inhibition at 1 mg/kg, po qd for 21 days relative to control; type: functional; settings: OPM-2, po, 504 h, read-out: TGI
[27] = test system: OPM-2; experiment: Antitumor activity against human OPM2 cells xenografted in SCID-Beige mouse assessed as tumor growth inhibition at 3 mg/kg, po qd for 21 days relative to control; type: functional; settings: OPM-2, po, 504 h, read-out: TGI
[28] = Fraction unbound in SCID-Beige mouse plasma xenografted with human OPM2 cells at 1 to 3 mg/kg, po; type: ADME, organism-based
[29] = test system: Mus musculus; experiment: Time required to reach in vitro EC50 for human OPM2 cells in SCID-Beige mouse xenografted with human OPM2 cells at 3 mg/kg, po
[30] = test system: Mus musculus; experiment: Dose normalized fAUC in mouse at 3 mg/kg, iv or 10 mg/kg, po; type: ADME, organism-based; settings: in vivo
[31] = test system: OPM-2; experiment: Antitumor activity against human OPM2 cells xenografted in SCID-Beige mouse assessed as tumor growth inhibition at 1 to 3 mg/kg, po qd measured after 21 days; type: functional, organism-based
[32] = test system: Mus musculus; experiment: Time required to reach in vitro EC50 for human OPM2 cells in SCID-Beige mouse xenografted with human OPM2 cells at 2 mg/kg, po
[33] = test system: OPM-2; experiment: Antitumor activity against human OPM2 cells xenografted in SCID-Beige mouse assessed as tumor growth inhibition compound administered po qd for 21 days; type: functional, organism-based
[34] = test system: Plasma; experiment: Free plasma concentration required to reach in vitro EC50 for human OPM2 cells in SCID-Beige mouse xenografted with human OPM2 cells at 1 to 2 mg/kg, po
[35] = test system: OPM-2; experiment: Antitumor activity against human OPM2 cells xenografted in SCID-Beige mouse assessed as tumor growth inhibition at 2 mg/kg, po qd for 21 days relative to control; type: functional; settings: OPM-2, po, 504 h, read-out: TGI
[36] = Fraction unbound in SCID-Beige mouse plasma xenografted with human OPM2 cells at 1 to 2 mg/kg, po; type: ADME, organism-based
[37] = test system: Mus musculus; experiment: Toxicity in SCID-Beige mouse xenografted with human OPM2 cells assessed as weight loss at 2 mg/kg, po qd for 21 days (reference value: 2%); type: organism-based; settings: in vivo, 504 h

| Structure (SMILES) | CL free [1] | CL free [2] | fraction unbound at 4 h, 1 µM [3] | bioavailability [4] | CL free [5] | logD [6] | CL free [7] | FaFg [8] | FaFg [9] | fraction unbound [10] | bioavailability [11] | Papp [12] | CL free [13] | bioavailability [15] | CL free [16] | Ki [18] | EC50 [19] | fAUC [20] | fAUC [21] | EC50 [17] | further results |
| --- | --- | --- | --- | --- | --- | --- | --- | --- | --- | --- | --- | --- | --- | --- | --- | --- | --- | --- | --- | --- | --- |
| CCOc1cc(=O)n(C)cc1-c1cc(NS(=O)(=O)CC)ccc1Oc1ccc(F)cc1F | < 100 mL/min/kg | 60 mL/min/kg | 0.1 | 56% | 267 mL/min/kg | 2.8 to 4.3 | < 71.7 mL/min/kg | 0.79 |  |  |  |  |  |  |  |  |  |  |  |  |  |
| CCS(=O)(=O)Nc1ccc(Oc2ccc(F)cc2F)c(-c2cn(C)c(=O)cc2OC)c1 | 267 mL/min/kg | 250 mL/min/kg | 0.14 | 63% | 183 mL/min/kg | 2.8 to 4.3 | 76.7 mL/min/kg | 0.89 |  |  |  |  |  |  |  | 13 nM | 56 nM |  |  | 47 nM | Activity [22]: 6%; Activity [23]: 5%; Cp(f) [24]: 0.16 µM; EC50 [25]: 23 nM; inhibition in vivo at 1 mg/kg [26]: 66%; inhibition in vivo at 3 mg/kg [27]: 73%; fraction unbound [28]: 0.14; Time [29]: 6.5 h; fAUC/dose [30]: 0.081 µg·h/mL per mg/kg; TGI [31]: inactive |
| CCOc1cc(=O)n(C)cc1-c1cc(S(=O)(=O)CC)ccc1Oc1ccc(F)cc1F | 200 mL/min/kg | 103 mL/min/kg | 0.1 | 41% | 167 mL/min/kg | 2.8 to 4.3 | < 33 mL/min/kg | 0.52 |  |  |  |  |  |  |  |  | 66 nM |  |  | 40 nM | fAUC/dose [30]: 0.039 µg·h/mL per mg/kg |
| CCS(=O)(=O)Nc1ccc(Oc2ccc(F)cc2F)c(-c2cn(C)c(=O)cc2OC2COC2)c1 | 150 mL/min/kg | < 41.7 mL/min/kg | 0.2 | 20% | 143 mL/min/kg | 2.8 to 4.3 | 76.7 mL/min/kg | 0.3 |  |  |  |  |  |  |  | 9 nM | 48 nM |  |  | 25 nM | fAUC/dose [30]: 0.026 µg·h/mL per mg/kg |

Second part, led by results:

| CL free [1] | CL free [2] | fraction unbound at 4 h, 1 µM [3] | bioavailability [4] | CL free [5] | logD [6] | CL free [7] | FaFg [8] | FaFg [9] | fraction unbound [10] | bioavailability [11] | Papp [12] | CL free [13] | bioavailability [15] | CL free [16] | Ki [18] | EC50 [19] | fAUC [20] | fAUC [21] | Structure (SMILES) | EC50 [17] | further results |
| --- | --- | --- | --- | --- | --- | --- | --- | --- | --- | --- | --- | --- | --- | --- | --- | --- | --- | --- | --- | --- | --- |
| 158 mL/min/kg | 107 mL/min/kg | 0.12 |  |  | 2.8 to 4.3 | 56.7 mL/min/kg |  | 0.51 | 0.24 | 45% | 12 ×10⁻⁶ cm/s | 88.3 mL/min/kg | 2.8% | 142 mL/min/kg | 11 nM | 24 nM | 2 ng·h/mL | 85 ng·h/mL | Cn1cc2c(cc1=O)OCCCCc1cc(Cl)ccc1Oc1ncc(CS(C)(=O)=O)cc1-2 | 24 nM | FaFg [14]: 0.42 |
| 2330 mL/min/kg | 433 mL/min/kg | 0.01 |  |  | 2.8 to 4.3 | < 217 mL/min/kg |  | 0.41 | 0.02 | 39% | 2.2 ×10⁻⁶ cm/s | 417 mL/min/kg | 16% | 2330 mL/min/kg | 1.5 nM | 5.1 nM | 1 ng·h/mL | 16 ng·h/mL | CCS(=O)(=O)Nc1ccc2c(c1)-c1cn(C)c(=O)cc1OCCCCc1cc(Cl)ccc1O2 | 5.7 nM | FaFg [14]: 0.44 |
| 267 mL/min/kg | 73.3 mL/min/kg | 0.04 |  |  | 2.8 to 4.3 | 58.3 mL/min/kg |  | 0.9 | 0.09 | 84% | 15 ×10⁻⁶ cm/s | 140 mL/min/kg | 95% | 233 mL/min/kg | 8.9 nM | 34 nM | 69 ng·h/mL | 100 ng·h/mL | CCS(=O)(=O)c1cnc2c(c1)-c1cn(C)c(=O)cc1OCCCCc1cc(Cl)ccc1O2 | 33 nM | Activity [22]: 4%; EC50 [25]: 12 nM; inhibition in vivo at 1 mg/kg [26]: 73%; Time [32]: >12 h; TGI [33]: Dose-dependent effect; FaFg [14]: 1; Cp(f) [34]: 0.3 µM; inhibition in vivo at 2 mg/kg [35]: 85%; fraction unbound [36]: 0.04; Activity [37]: 4% |
| 1030 mL/min/kg | 153 mL/min/kg | 0.06 |  |  | 2.8 to 4.3 | 63.3 mL/min/kg |  | 0.76 | 0.12 | 70% | 7.2 ×10⁻⁶ cm/s | 102 mL/min/kg | 19% | 833 mL/min/kg | 3.4 nM | 9.3 nM | 5 ng·h/mL | 120 ng·h/mL | CCS(=O)(=O)Nc1cnc2c(c1)-c1cn(C)c(=O)cc1OCCCCc1cc(Cl)ccc1O2 | 5.7 nM |  |
